Reference: paper PMC7570544, “Biological Activities and ADMET-Related Properties of Novel Set of Cinnamanilides” (Molecules, 2020)
Values after ≈ are worked out from the molar mass of the structure shown. Values joined by “and” are separate entries in the source; they are usually repeats but may differ in a detail not shown here. Identical values can stand only once.

How the values were obtained:
[1] = test system: Staphylococcus aureus ATCC 29213; experiment: In vitro antibacterial evaluation, broth microdilution MIC, reference strain; assay type: cell-based; conditions: S. aureus ATCC 29213
[2] = test system: methicillin-resistant Staphylococcus aureus (MRSA) 63718; experiment: In vitro antibacterial evaluation, broth microdilution MIC, MRSA isolate 63718; assay type: cell-based; conditions: clinical isolate MRSA 63718
[3] = test system: methicillin-resistant Staphylococcus aureus (MRSA) SA 630; experiment: In vitro antibacterial evaluation, broth microdilution MIC, MRSA isolate SA 630; assay type: cell-based; conditions: clinical isolate MRSA SA 630
[4] = test system: Mycobacterium tuberculosis H37Ra/ATCC 25177; experiment: In vitro antimycobacterial evaluation; assay type: cell-based; conditions: M. tuberculosis H37Ra
Text: Isoniazid (Sigma) was used as the standard.

[5] = test system: THP1-Blue™ NF-κB cell line; experiment: In vitro cell viability assay (WST-1); assay type: cell-based; conditions: Homo sapiens; THP1-Blue NF-κB cells, 24 h incubation, WST-1, mean ± SEM, n = 6; read-out: Tox IC50 ± SEM
Procedure: The cytotoxic effect of the tested compounds was specified on THP1-Blue™ NF-κB cell line (Invivogen; San Diego, CA, USA), as described previously. […] The final concentration of DMSO was 0.1% (v/v) in each well. The viability analysis was performed after 24 h incubation with the tested substances using the WST-1 Cell Proliferation Reagent kit (Roche Diagnostics, Basel, Switzerland) according to the manufacturer’s manual. […] The IC50 values were calculated by four-parameter logistic (4PL) analysis from obtained viability curves by GraphPad Prism 8.0.1 (San Diego, CA, USA) software.

[6] = test system: NF-κB in THP1-Blue™ NF-κB cells; experiment: Determination of NF-κB activity after LPS stimulation (Quanti-Blue); assay type: cell-based, human; conditions: 1 µM compound, LPS 1 µg/mL; for increase of NF-κB activity / decrease of NF-κB activity: 1 h pretreatment, 24 h, vs DMSO group
Procedure: To evaluate the anti-inflammatory potential of novel compounds, their ability to attenuate the lipopolysaccharide (LPS)-activated pro-inflammatory transcription nuclear factor (NF)-κB was measured as was described previously. Briefly, THP1-Blue™ NF-κB cells were pretreated by tested compounds dissolved in DMSO in the non-toxic concentration 1 µM for 1 h. After LPS (1 µg/mL) stimulation, the NF-κB activity was evaluated by Quanti-Blue medium (Invivogen) according to the manufacturer’s instructions. The results from 3 independent experiments performed in triplicate (n = 9) were analyzed by GraphPad Prism 8.0.1 software. The outlaying values were excluded by ROUT algorithms (Q = 5%).
Figure 1 Effect of tested compounds on activity of transcription factor NF-κB. […] Then, lipopolysaccharide (LPS) 1 µg/mL was added to trigger the NF-κB activation. The activity of NF-κB was measured 24 h after LPS stimulation using QuantiBlue™ assay. The graph represents mean ± SEM (n = 9). […] Groups were compared with the help of the one-way ANOVA test followed by Fisher’s LSD multiple comparison test. * indicates statistical significance (p < 0.05) to DMSO group; ** indicates statistical significance (p < 0.01) to DMSO group; *** indicates statistical significance (p < 0.001) to DMSO group; **** indicates statistical significance (p < 0.0001) to DMSO group. CA—cinnamic acid.

[7] = Lipophilicity determination by RP-TLC; assay type: physicochemical; parameters: key to RM (MeOH:H2O): RM = log(1/RF - 1), from RP-18 TLC; conditions: for RM (MeOH:H2O): 72:28 MeOH:H2O; for RM (pH 7.4): 72:28 MeOH:NaOAc buffer (pH 7.4)
Procedure: RM values were determined from the RP-18 TLC measurements. […] The volatiles were carefully evaporated, and the plate was developed by MeOH (100%) or MeOH: H2O-HPLC (72:28 v/v) or MeOH: NaOAc buffer, pH 7.4 (72:28 v/v). After drying, the spots were visualized under UV (λ = 365 nm). RM data were obtained from equation: RM = log(1/RF-1). Each experiment was repeated three times.

[8] = RP-HPLC, 72:28 MeOH:H2O
S. aureus ATCC 29213 = experiment: MTT assay of bacterial viability; conditions: Staphylococcus aureus, ATCC29213, read-out: viability of S. aureus ATCC 29213 (MTT)
[9] = test system: S. aureus and MRSA isolates; experiment: Minimum bactericidal concentration (MBC) by subcultivation
[10] = Staphylococcus aureus, ATCC29213

SMILES | MIC [1] | MIC [1, 10] | MIC [2] | MIC [3] | MIC [4] | IC50 [5] | increase of NF-κB activity [6] | RM (MeOH:H2O) [7] | RM (pH 7.4) [7] | RM (100% MeOH) [7] | Logk [8] | chromatographic logD (physchem; pH 6.5) | chromatographic logD (physchem; pH 7.4) | viability at 25.9 µM (S. aureus ATCC 29213) | MBC ([9]; S. aureus and MRSA isolates, compared with MIC) | bacteriostatic/bactericidal classification ([9]; bactericidal if MBC/MIC ≤4) | decrease of NF-κB activity [6] | anti-inflammatory potential (LPS-induced NF-κB activation), in words [6]
O=C(/C=C/c1ccccc1)Nc1ccc(C(F)(F)F)c(F)c1 [Compound 10, (2E)-N-[3-Fluoro-4-(trifluoromethyl)phenyl]-3-phenylprop-2-enamide] | 25.9 µM (≈ 8.01 µg/mL) | 8 µg/mL and 25.9 µM | 25.9 µM (≈ 8.01 µg/mL) | 12.9 µM (≈ 3.99 µg/mL) | > 414 µM | > 20 µM | 10–15% | 0.7923 | 0.5960 | −0.5032 | 0.5789 | 0.61 | 0.633 | 13.4 ± 0.1% | equal to the MIC values | bactericidal | – | –
O=C(/C=C/c1ccccc1)Nc1c(Br)cc(F)c(Cl)c1Br [Compound 20, (2E)-N-(2,6-Dibromo-3-chloro-4-fluorophenyl)-3-phenylprop-2-enamide] | – | > 595 µM | > 595 µM | > 595 µM | > 298 µM | > 20 µM | – | 0.4320 | 0.4138 | −0.5541 | 0.3139 | 0.37 | 0.392 | – | – | – | approximately 9% | more potent than the parental cinnamic acid
O=C(/C=C/c1ccccc1)Nc1c(F)cc(F)cc1F [Compound 2, (2E)-3-Phenyl-N-(2,4,6-trifluorophenyl)prop-2-enamide] | – | > 924 µM | > 924 µM | > 924 µM | > 462 µM | > 20 µM | 10–15% | 0.1218 | 0.1951 | −0.6536 | −0.0831 | 0.0107 | 0.026 | – | – | – | – | –
O=C(/C=C/c1ccccc1)Nc1cc(C(F)(F)F)ccc1Br [Compound 13, (2E)-N-[2-Bromo-5-(trifluoromethyl)phenyl]-3-phenylprop-2-enamide] | – | > 696 µM | > 696 µM | > 696 µM | > 348 µM | > 20 µM | – | 0.7194 | 0.5619 | −0.4325 | 0.5561 | 0.594 | 0.616 | – | – | – | – | insignificant anti-inflammatory potential
O=C(/C=C/c1ccccc1)Nc1ccc(F)cc1C(F)(F)F [Compound 14, (2E)-N-[4-Fluoro-2-(trifluoromethyl)phenyl]-3-phenylprop-2-enamide] | – | > 828 µM | > 828 µM | > 828 µM | > 414 µM | > 20 µM | – | 0.3011 | 0.1330 | −0.6797 | 0.1607 | 0.222 | 0.243 | – | – | – | approximately 9% | –
